Consider 20 compounds from patent US20120309728A1, “NEW STEROID INHIBITORS OF PGP FOR USE FOR INHIBITING MULTIDRUG RESISTANCE” (priority 2009, published 2012).

One assay deals with R7 cells. As to the kind of experiment: Intracellular accumulation of daunorubicin measured by flow cytometry. Format: cell-based, human. As to conditions: for Daunorubicin accumulation: daunorubicin 10 μM, compound 10 μM, 1 h at 37° C. As for the experimental part:
The accumulation of daunorubicin in the presence of steroid modulators according to the invention, i.e. compounds having formula (I), was measured by flow cytometry using a reported procedure (G. Comte et al, J. Med. Chem., 44: 763-768, 2001). K562 or R7 cells ([…]) were incubated for 1 h at 37° C. with 1 mL RPMI 1640 medium containing daunorubicin at 10 μM, in the presence or absence of compounds of the invention (10 μM). The cells were then washed twice with ice-cold PBS and kept on ice until analysis by flow cytometry on a FACS-II (Becton-Dickinson Corp., Mountain View, Calif.). Assays were performed in duplicate, in at least three separate experiments.

Another assay deals with K562/R7 cells. Put plainly: Cytotoxicity assay using MTT reagent, with doxorubicin plus steroid modulator. The following applies: doxorubicin 10^−6M + steroid modulator 10^−6M, 72 h. Format: cell-based, human. As to the method: Doxorubicin at 10^−6 M was then added to each well. After incubation for 72 h, 20 μL of MTT reagent (5 mg/mL in PBS buffer) were added to each well and the plate was further incubated for 4 h at 37° C., allowing viable cells to change the yellow MTT into dark-blue formazan crystals. Supernatants were carefully discarded and 100 μL of isopropanol containing 10% HCL 1M were added to dissolve the formazan crystals. Absorbance in each well was determined at 570 nm using a microplate reader (MultisKan EX, Thermo Electron). […] At least three different experiments were performed. Results were expressed as the percentage of surviving cells in each well compared to untreated cells.

With `CC(=O)[C@@]1(O[C@H]2CCCCO2)CC[C@H]2[C@@H]3CC[C@@H]4CC(=O)CC[C@]4(C)[C@H]3[C@H](O[C@H]3CCCCO3)C[C@@]21C` [Compound 53, 11α,17α-Bis-O-[2′(S),2′(S)]Tetrahydropyranyloxy(5β)pregnane-3,20-dione], in the assay with R7 cells, the “accumulation of daunorubicin compared in words with cyclosporine A or progesterone” value is reported as “equivalent to that observed with cyclosporine A” and the Daunorubicin accumulation is 107.0 ± 5.0 % of the accumulation measured in the presence of cyclosporine A.
In the case of `CC(=O)[C@H]1CC[C@H]2[C@H]3[C@H]([C@H](O)C[C@]12C)[C@@]1(C)CCC(=O)C[C@H]1C[C@H]3OC1CCCCO1` (stereo partly drawn) [Compound 204, 7α-O-[2′(R+S)]Tetrahydropyranyloxy-11α-hydroxy(5β)pregnane-3,20-dione], the Daunorubicin accumulation in the assay with R7 cells is given as 87.4 ± 3.5 % of the accumulation measured in the presence of cyclosporine A. Also, the “Surviving cells R7 cells (% untreated cells)” value with K562/R7 cells amounted to 2.8 ± 0.7 % untreated cells.
Turning to `COCCC[C@@H](C)[C@H]1CC[C@H]2[C@@H]3[C@H](O[C@@H]4CCCCO4)CC4CC(=O)CC[C@]4(C)[C@H]3C[C@H](OC(=O)c3ccccc3)[C@]12C` (stereo partly drawn) [Compound 74, 3-oxo-12α-benzoyloxy-7α-O-[2′(R)]tetrahydropyranyloxy-24-methoxycholane], the Daunorubicin accumulation in the assay on R7 cells is on record as 68.0 ± 15.0 % of the accumulation measured in the presence of cyclosporine A.
Still for that read-out and setting: the same measure for `CC(=O)C1CCC2C3C([C@H](OC4CCCCO4)C[C@]12C)[C@@]1(C)CCC(=O)C[C@H]1C[C@H]3OC(=O)c1ccccc1` (stereo partly drawn) [Compound 32, 7α-Benzoyloxy-11α-O-[2′(S)]tetrahydropyranyloxy (5β)pregnane-3,20-dione]: 103.88 ± 4.53 % of the accumulation measured in the presence of cyclosporine A.
Still for that read-out and setting: the value for `COCCC[C@@H](C)[C@H]1CC[C@H]2[C@@H]3[C@H](OC(=O)c4ccccc4)CC4CC(=O)CC[C@]4(C)[C@H]3C[C@H](OC(=O)c3ccccc3)[C@]12C` (stereo partly drawn) [Compound 71, 3-oxo-7α,12α-dibenzoyloxy-24-methoxycholane] was 50.50 ± 7.5 % of the accumulation measured in the presence of cyclosporine A.
On to Cyclosporine A [reference compound], for which the “Surviving cells R7 cells (% untreated cells)” value with K562/R7 cells turned out to be 1.6 ± 0.5 % untreated cells.
In the case of `CC(=O)C1CCC2C3C(CC[C@]12C)[C@@]1(C)CCC(=O)C=C1C[C@@H]3OC1CCCCO1` (stereo partly drawn) [Compound 3, 7beta-O-[2′(R+S)]Tetrahydropyranyloxypregn-4-ene-3,20-dione], the Daunorubicin accumulation in the assay with R7 cells was 108.78 ± 4.27 % of the accumulation measured in the presence of cyclosporine A.
As for `CC(=O)C1CCC2C3CC[C@@H]4CC(=O)CC[C@]4(C)C3[C@H](OC3CCCCO3)C[C@]12C` (stereo partly drawn) [Compound 7, 11α-O-[2′(R)]Tetrahydropyranyloxy(5β)pregnane-3,20-dione], the Daunorubicin accumulation with R7 cells is on record as 103.0 ± 1.86 % of the accumulation measured in the presence of cyclosporine A.
Same read-out and setting: the value for `CC(=O)[C@H]1CC[C@H]2[C@H]3[C@H]([C@H](OC(=O)c4ccccc4)C[C@]12C)[C@@]1(C)CCC(=O)C[C@H]1C[C@H]3OC(=O)c1ccccc1` [Compound 30, 7alpha,11alpha-Di benzoyloxy(5beta)pregnane-3,20-dione] was 75.39 ± 0.39 % of the accumulation measured in the presence of cyclosporine A; that for `CC(=O)[C@@]1(OC2CCCCO2)CCC2C3CCC4=CC(=O)CC[C@]4(C)C3CC[C@@]21C` (stereo partly drawn) [Compound 11, 17alpha-O-[2′(R)]Tetrahydropyranyloxypregn-4-ene-3,20-dione] was 108.08 ± 6.28 % of the accumulation measured in the presence of cyclosporine A.
As to `COC(=O)CC[C@@H](C)[C@H]1CC[C@H]2[C@@H]3[C@H](OC(=O)c4ccccc4)CC4CC(=O)CC[C@]4(C)[C@H]3C[C@H](OC(=O)c3ccccc3)[C@]12C` (stereo partly drawn) [Compound 57, Methyl 3-oxo-7alpha,12alpha-dibenzoyloxycholanate], in the assay with R7 cells, the Daunorubicin accumulation is 74 ± 1.0 % of the accumulation measured in the presence of cyclosporine A.
Turning to `COC(=O)CC[C@@H](C)C1CCC2C3C[C@H](OC4CCCCO4)[C@@H]4CC(=O)CCC4(C)C3CCC21C` (stereo partly drawn) [Compound 210, Methyl 3-oxo-6α-O-[2′(R+S)]tetrahydropyranyloxycholanate], the Daunorubicin accumulation in the assay with R7 cells was 66.7 ± 1.8 % of the accumulation measured in the presence of cyclosporine A. Besides, the “Surviving cells R7 cells (% untreated cells)” value in the assay with K562/R7 cells was found to be 4.1 ± 1.1 % untreated cells.
Take `COCCC[C@@H](C)[C@H]1CC[C@H]2[C@@H]3[C@H](O[C@H]4CCCCO4)CC4CC(=O)CC[C@]4(C)[C@H]3C[C@H](OC(=O)c3ccccc3)[C@]12C` (stereo partly drawn) [Compound 73, 3-oxo-12α-benzoyloxy-7α-O-[2′(S)]tetrahydro-pyranyloxy-24-methoxycholane]: the Daunorubicin accumulation in the assay with R7 cells is 63.5 ± 5.5 % of the accumulation measured in the presence of cyclosporine A.
On to `CC(=O)[C@@]1(OC2CCCCO2)CCC2C3CC[C@@H]4CC(=O)CC[C@]4(C)C3[C@H](OC3CCCCO3)C[C@@]21C` (stereo partly drawn) [Compound 52, 11α,17α-Bis-O-[2′(R),2′(R)]tetrahydropyranyloxy(5β)pregnane-3,20-dione], for which, in the assay on R7 cells, the “accumulation of daunorubicin compared in words with cyclosporine A or progesterone” value is recorded as “equivalent to that observed with cyclosporine A” and the Daunorubicin accumulation is 102.01 ± 2.0 % of the accumulation measured in the presence of cyclosporine A.
As to `CC(=O)[C@H]1CC[C@H]2[C@@H]3CCC4=CC(=O)CC[C@]4(C)[C@H]3CC[C@]12C` [progesterone, reference compound], the Daunorubicin accumulation in the assay with R7 cells is on record as 36.27 ± 4.9 % of the accumulation measured in the presence of cyclosporine A.
The same measure, in the same setting: the value for `CC(=O)[C@H]1CC[C@H]2[C@H]3[C@H]([C@H](OC(=O)c4ccccc4)C[C@]12C)[C@@]1(C)CCC(=O)C[C@H]1C[C@@H]3OC(=O)c1ccccc1` [Compound 41, 7β,11α-Dibenzoyloxy(5β)pregnane-3,20-dione] was 73.3 ± 0.5 % of the accumulation measured in the presence of cyclosporine A; that for `CC(=O)C1CCC2C3C([C@H](OC4CCCCO4)C[C@]12C)[C@@]1(C)CCC(=O)C[C@H]1C[C@@H]3OC(=O)c1ccccc1` (stereo partly drawn) [Compound 39, 7β-Benzoyloxy-11α-O-[2′(S)]tetrahydropyranyloxy(5β)pregnane-3,20-dione] was 109.0 ± 1.0 % of the accumulation measured in the presence of cyclosporine A.
The same measure, in the same setting: the same measure for `CC(=O)C1CCC2C3C([C@H](OC4CCCCO4)C[C@]12C)[C@@]1(C)CCC(=O)C[C@H]1C[C@@H]3OC(=O)c1ccccc1` (stereo partly drawn) [Compound 40, 7β-Benzoyloxy-11α-O-[2′(R)]tetrahydropyranyloxy(5β) pregnane-3,20-dione]: 89.5 ± 0.5 % of the accumulation measured in the presence of cyclosporine A.
Regarding `CC(=O)C1CCC2C3C[C@@H](OC(=O)c4ccccc4)[C@@H]4CC(=O)CCC4(C)C3[C@H](OC3CCCCO3)CC12C` (mixture of isomers) [Compound 217, 6β-Benzoyloxy-11α-O-[2′(R and S)]tetrahydropyranyloxy(5β)pregnan-3,20-dione], the “Surviving cells R7 cells (% untreated cells)” value with K562/R7 cells is 5.5 ± 0.4 % untreated cells.
On the same count and under the same terms, the same measure for `CC(=O)C1CCC2C3C[C@@H](OC(=O)c4ccccc4)[C@@H]4CC(=O)CCC4(C)C3[C@H](OC3CCCCO3)CC12C` (mixture of isomers) [Compound 218, 6β-Benzoyloxy-11α-O-[2′(R and S)]tetrahydropyranyloxy(5β)pregnan-3,20-dione]: 6.2 ± 1.1 % untreated cells.
